Results on one compound are retold here after patent US8999983B2, “Modulators of Hec1 activity and methods therefor” (Taivex Therapeutics Corporation, priority 2011, dated 2015).

The test system of one series is Huh-7 xenograft. The experiment in a line: Mouse xenograft study, Huh-7 liver cancer. Format: in vivo. The note with it: Huh-7 liver cancer xenograft, nude mice.
Series [1] is described as follows: Body weight in mouse xenograft studies. Format: in vivo, nude mice. The procedure:
Mouse Xenograft Studies: Xenograft studies adapted from a previous published protocol (Wu et al, Cancer Res. 2008 Oct. 15; 68(20):8393-9). Female BALB/c nude (nu/nu) mice (5-8 weeks) were obtained from Lasco (Industrial Park, Tai-Ping Area, Taichung City, Taiwan). The animals were maintained under specific pathogen-free conditions, and food and water were supplied ad libitum. Housing and all procedures involving animals were performed according to protocols approved by the IACUC in DCB. Nude mice were inoculated with 17-β-estradiol pellets 72 to 96 h before implantation of BT-474 cells. For subcutaneous implantation of BT-474 cells, cells (1×10^7 in matrix gel/animal) were injected subcutaneously into the right subaxillary region. Treatment started when average tumor volume reached about 200 mm^3; mice were treated (p.o., QD/28 cycles in total) with vehicle A (0.5% methylcellulose), or candidate compounds formulated in vehicle A (10-50 mg/kg body weight). Perpendicular diameter measurement of each tumor were made with digital calipers and the volume of the tumor calculated using formula (L×W×W)/2, in which L and W represent the length and the width, respectively. Body weights were measured three times weekly.
The in vivo effectiveness of contemplated compounds in the reduction of tumor volume in nude mice is readily apparent.
Development of resistance to treatment in advanced stage tumors is a well known phenomenon. Activity of select Hec1 inhibitor in such late stage tumors was determined by re-dosing of BT474 xenografted animals that had previously subjected to 35 days of treatment with 110095 (compound 27 of Table 1). Re-treatment with 110095 was starting on day 42 and continued for 21 days.

A further series relates to MDA-MB-231 xenograft. Briefly: Mouse xenograft study, MDA-MB-231 breast cancer. In kind it is in vivo. Conditions: MDA-MB-231 breast cancer xenograft, nude mice.
A further series deals with T1, hERG potassium channels (Homo sapiens, UniProt Q12809).
T1 construct: purchased PerkinElmer
Briefly: [3H]Astemizole competitive binding assay, hERG. The note with it: [3H]-astemizole displacement, hERG membrane protein. The procedure:
Here, [3H] Astemizole competitive binding assays were performed to determine the ability of compounds to displace the known radioligand [3H]-astemizole from the hERG potassium channels, following standard protocol with minor modifications. In brief, assays were performed in 200 μl of binding buffer (50 mM HEPES, pH 7.4, 60 mM KCl, and 0.1% BSA) containing 1.5 nM of [3H]astemizole, 3 μg/well of hERG membrane protein (PerkinElmer), and TAI-1 (in 1% DMSO final concentration) at 27° C. for 60 min. Nonspecific binding (NSB) was determined in the presence of 10 μM astemizole. […] Binding was terminated by rapid filtration onto polyethyleneimine-presoaked, buffer-washed UniFilter-96, GF/C (Perkin Elmer) using a vacuum manifold (Porvair Sciences). Captured radiolabel signal was detected using TopCount NXT (Perkin Elmer). […] All results are derived from two independent experiments.
(In general: Block of hERG is tested as a sign of cardiac risk.)

The next series relates to Nek2 protein. Briefly: Immunoblot of Nek2 protein level in K562 cells. Format: cell-based. The note with it: 1 μM, up to 24 hrs. The procedure:
Immunoblot Analysis: For immunoblotting experiments, cells were plated in a 6-well culture plate and cultured overnight. Cells were incubated with the test compounds for the indicated time and whole cell lysate was harvested by adding 1×SDS-PAGE Sample Buffer (62.5 mM Tris-HCl (pH 6.8 at 25° C.), 2% w/v SDS, 10% glycerol, 50 mM DTT, and 0.01% w/v bromophenol blue or phenol red). Proteins were separated by SDS-PAGE electrophoresis and transferred to PVDF membrane. Protein expression was immunoblotted using various primary antibodies and detected using Immobilon Western Chemiluminescent HRP Substrate (Millipore, Billerica Mass. 01821 USA). Antibodies used include anti-Cleaved Caspase3, (Rabbit, Cell Signaling Technology, Danvers Mass. 01923 USA); anti-PARP (Rabbit, Cell Signaling Technology, Danvers Mass. 01923 USA); anti-MCL-1 (mouse, BD Biosciences, San Jose Calif. 95131 USA); anti-XIAP (rabbit, Cell Signaling Technology, Danvers Mass. 01923 USA); anti-Bcl-2 (mouse, Santa Cruz Biotechnology, Santa Cruz Calif. 95060); anti-Cyclin BI (mouse, BD Biosciences, San Jose Calif. 95131 USA); anti-Cyclin D1 (mouse, Santa Cruz Biotechnology, Santa Cruz Calif. 95060); Anti-Nek2 (mouse, BD Biosciences, San Jose Calif. 95131 USA); Anti-HEC1, (rabbit, GeneTex, Inc., Irvine Calif. 92606 USA); and anti-actin (mouse, Millipore, Billerica Mass. 01821 USA). […]

The test system of series [2] is caspase-3, PARP, Mcl-1 and XIAP. Briefly: Immunoblot of apoptotic pathway proteins. In kind it is cell-based. The note with it: 1 μM, 24 or 48 hours. Here is the method:
Immunoblot Analysis: For immunoblotting experiments, cells were plated in a 6-well culture plate and cultured overnight. Cells were incubated with the test compounds for the indicated time and whole cell lysate was harvested by adding 1×SDS-PAGE Sample Buffer (62.5 mM Tris-HCl (pH 6.8 at 25° C.), 2% w/v SDS, 10% glycerol, 50 mM DTT, and 0.01% w/v bromophenol blue or phenol red). Proteins were separated by SDS-PAGE electrophoresis and transferred to PVDF membrane. Protein expression was immunoblotted using various primary antibodies and detected using Immobilon Western Chemiluminescent HRP Substrate (Millipore, Billerica Mass. 01821 USA). Antibodies used include anti-Cleaved Caspase3, (Rabbit, Cell Signaling Technology, Danvers Mass. 01923 USA); anti-PARP (Rabbit, Cell Signaling Technology, Danvers Mass. 01923 USA); anti-MCL-1 (mouse, BD Biosciences, San Jose Calif. 95131 USA); anti-XIAP (rabbit, Cell Signaling Technology, Danvers Mass. 01923 USA); anti-Bcl-2 (mouse, Santa Cruz Biotechnology, Santa Cruz Calif. 95060); anti-Cyclin BI (mouse, BD Biosciences, San Jose Calif. 95131 USA); anti-Cyclin D1 (mouse, Santa Cruz Biotechnology, Santa Cruz Calif. 95060); Anti-Nek2 (mouse, BD Biosciences, San Jose Calif. 95131 USA); Anti-HEC1, (rabbit, GeneTex, Inc., Irvine Calif. 92606 USA); and anti-actin (mouse, Millipore, Billerica Mass. 01821 USA).
100 nM Taxol was used as a positive control drug for apoptosis.

T1 sequence (Q12809 whole entry): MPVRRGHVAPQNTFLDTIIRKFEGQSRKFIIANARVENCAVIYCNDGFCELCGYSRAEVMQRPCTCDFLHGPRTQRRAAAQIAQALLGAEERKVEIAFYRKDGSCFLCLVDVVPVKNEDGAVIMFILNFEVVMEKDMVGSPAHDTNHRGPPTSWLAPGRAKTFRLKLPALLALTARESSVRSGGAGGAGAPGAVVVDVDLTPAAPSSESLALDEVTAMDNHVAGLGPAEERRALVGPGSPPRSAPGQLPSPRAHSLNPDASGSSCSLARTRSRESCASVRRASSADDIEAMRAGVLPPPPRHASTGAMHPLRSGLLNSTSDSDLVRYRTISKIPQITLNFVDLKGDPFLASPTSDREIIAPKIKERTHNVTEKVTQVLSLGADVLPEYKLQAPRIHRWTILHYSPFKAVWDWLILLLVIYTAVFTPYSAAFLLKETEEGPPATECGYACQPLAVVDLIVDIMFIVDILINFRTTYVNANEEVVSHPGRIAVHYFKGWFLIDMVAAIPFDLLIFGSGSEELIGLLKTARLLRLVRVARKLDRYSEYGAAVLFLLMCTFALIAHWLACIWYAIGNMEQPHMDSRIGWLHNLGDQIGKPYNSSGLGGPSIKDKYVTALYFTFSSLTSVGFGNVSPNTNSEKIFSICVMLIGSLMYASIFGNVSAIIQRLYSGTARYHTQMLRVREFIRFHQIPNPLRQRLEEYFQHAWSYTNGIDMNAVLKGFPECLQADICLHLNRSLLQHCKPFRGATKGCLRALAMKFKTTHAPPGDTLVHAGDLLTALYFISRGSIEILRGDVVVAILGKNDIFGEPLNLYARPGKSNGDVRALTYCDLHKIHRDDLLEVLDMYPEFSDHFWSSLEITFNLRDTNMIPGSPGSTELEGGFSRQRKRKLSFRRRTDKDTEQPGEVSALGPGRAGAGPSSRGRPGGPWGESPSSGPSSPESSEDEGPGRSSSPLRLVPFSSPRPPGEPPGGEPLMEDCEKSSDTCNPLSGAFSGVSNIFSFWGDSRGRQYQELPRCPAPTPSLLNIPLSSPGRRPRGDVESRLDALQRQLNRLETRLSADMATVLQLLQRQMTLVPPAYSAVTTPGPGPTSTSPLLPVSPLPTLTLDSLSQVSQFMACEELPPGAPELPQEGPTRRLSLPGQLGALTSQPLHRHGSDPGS

Consider `COCCOc1cnc(Sc2cc(C)c(-c3csc(NC(=O)c4ccncc4)n3)c(C)c2)cn1` [Compound 27, N-(4-{4-(5-(2-methoxyethoxy)pyrazin-2-ylthio)-2,6-dimethylphenyl}thiazol-2-yl)isonicotinamide], for which the xenograft tumor outgrowth result with Huh-7 xenograft and with MDA-MB-231 xenograft was “inhibition of xenograft tumor outgrowth” throughout. In addition, the body weight entry in series [1] (re-treatment of late stage xenografts) is “body weight remained constant”; in series [1] (xenograft studies FIG. 7A-7D, nude mice), “body weight remained constant”. The IC50 on hERG potassium channels is over 10 µM. In addition, the Nek2 protein level result with Nek2 protein is “induced a reduction of Nek2 protein levels”. Moreover, the “levels of apoptotic (caspase-3, PARP) and anti-apoptotic (Mcl-1, XIAP) proteins” value in series [2] was “cleavage of the apoptotic proteins accompanied by down-regulation of the anti-apoptotic proteins”.

One may read the IC50 as the concentration that inhibits the measured activity by half. Low readings indicate inhibition by little substance, high ones a need for much substance.
